{
  "source": "PubChem BioAssay (NCI)",
  "test_in_all_cases": "NCI tumour cell line growth inhibition, 48 h",
  "key": {"[1]": {"test_system": "MOLT-4 leukemia"}, "[2]": {"test_system": "U251 CNS"}, "[3]": {"test_system": "BT-549 breast"}, "[4]": {"test_system": "SK-OV-3 ovarian"}, "[5]": {"test_system": "SNB-75 CNS"}, "[6]": {"test_system": "TK-10 renal"}, "[7]": {"test_system": "HS 578T breast"}, "[8]": {"test_system": "SF-268 CNS"}, "[9]": {"test_system": "HT29 colon"}, "[10]": {"test_system": "UACC-257 melanoma"}, "[11]": {"test_system": "IGROV1 ovarian"}, "[12]": {"test_system": "MDA-MB-435"}, "[13]": {"test_system": "EKVX NSCLC"}, "[14]": {"test_system": "CCRF-CEM leukemia"}, "[15]": {"test_system": "MALME-3M melanoma"}, "[16]": {"test_system": "CAKI-1 renal"}, "[17]": {"test_system": "M14 melanoma"}, "[18]": {"test_system": "RXF 393 renal"}, "[19]": {"test_system": "OVCAR-3 ovarian"}, "[20]": {"test_system": "SK-MEL-2 melanoma"}, "[21]": {"test_system": "ACHN renal"}, "[22]": {"test_system": "SK-MEL-5 melanoma"}, "[23]": {"test_system": "SN12C renal"}, "[24]": {"test_system": "NCI-H460 lung"}, "[25]": {"test_system": "DU-145 prostate"}, "[26]": {"test_system": "HCT-15 colon"}, "[27]": {"test_system": "HOP-62 NSCLC"}, "[28]": {"test_system": "LOX IMVI melanoma"}, "[29]": {"test_system": "SNB-19 CNS"}, "[30]": {"test_system": "SF-295 CNS"}},
  "note": "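The compound was tested at five concentrations on cells cultured in 96-well plates, with a 48-hour exposure period. GI50 marks 50% less growth. The concentration for full growth arrest is given as TGI.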",
  "data": [
    {"smiles": "C[C@]12CC[C@@H]3c4cc(OC(F)F)c(OS(N)(=O)=O)cc4CC[C@H]3[C@@H]1CC[C@@H]2OS(N)(=O)=O", "values": [
      {"measurement": "TGI", "setting": "[1]", "value": 47.7, "unit": "µM"},
      {"measurement": "GI50", "setting": "[2]", "value": 1.83, "unit": "µM"},
      {"measurement": "TGI", "setting": "[2]", "value": 20.2, "unit": "µM"},
      {"measurement": "GI50", "setting": "[3]", "value": 3.19, "unit": "µM"},
      {"measurement": "TGI", "setting": "[3]", "value": 20.4, "unit": "µM"},
      {"measurement": "GI50", "setting": "[4]", "value": 6.14, "unit": "µM"},
      {"measurement": "TGI", "setting": "[4]", "value": 33.2, "unit": "µM"},
      {"measurement": "GI50", "setting": "[5]", "value": 0.463, "unit": "µM"},
      {"measurement": "TGI", "setting": "[5]", "value": 2.15, "unit": "µM"},
      {"measurement": "GI50", "setting": "[6]", "value": 13.6, "unit": "µM"},
      {"measurement": "TGI", "setting": "[6]", "value": 49.1, "unit": "µM"},
      {"measurement": "GI50", "setting": "[7]", "value": 1, "unit": "µM"},
      {"measurement": "TGI", "setting": "[7]", "value": 16.1, "unit": "µM"},
      {"measurement": "GI50", "setting": "[8]", "value": 6.44, "unit": "µM"},
      {"measurement": "TGI", "setting": "[8]", "value": 49.8, "unit": "µM"},
      {"measurement": "GI50", "setting": "[9]", "value": 2.25, "unit": "µM"},
      {"measurement": "TGI", "setting": "[9]", "value": 22.5, "unit": "µM"},
      {"measurement": "GI50", "setting": "[10]", "value": 5.87, "unit": "µM"},
      {"measurement": "TGI", "setting": "[10]", "value": 24.8, "unit": "µM"},
      {"measurement": "GI50", "setting": "[11]", "value": 1.88, "unit": "µM"},
      {"measurement": "TGI", "setting": "[11]", "value": 28.7, "unit": "µM"},
      {"measurement": "GI50", "setting": "[12]", "value": 0.241, "unit": "µM"},
      {"measurement": "TGI", "setting": "[12]", "value": 3.04, "unit": "µM"},
      {"measurement": "GI50", "setting": "[13]", "value": 1.7, "unit": "µM"},
      {"measurement": "TGI", "setting": "[13]", "value": 22.5, "unit": "µM"},
      {"measurement": "TGI", "setting": "[14]", "value": "> 70.7", "unit": "µM"},
      {"measurement": "GI50", "setting": "[15]", "value": 2.35, "unit": "µM"},
      {"measurement": "TGI", "setting": "[15]", "value": 22, "unit": "µM"},
      {"measurement": "GI50", "setting": "[16]", "value": 1.46, "unit": "µM"},
      {"measurement": "TGI", "setting": "[16]", "value": 19.8, "unit": "µM"},
      {"measurement": "GI50", "setting": "[17]", "value": 0.631, "unit": "µM"},
      {"measurement": "TGI", "setting": "[17]", "value": 17.7, "unit": "µM"},
      {"measurement": "GI50", "setting": "[18]", "value": 4.16, "unit": "µM"},
      {"measurement": "TGI", "setting": "[18]", "value": 16.1, "unit": "µM"},
      {"measurement": "GI50", "setting": "[19]", "value": 2.17, "unit": "µM"},
      {"measurement": "TGI", "setting": "[19]", "value": 28.4, "unit": "µM"},
      {"measurement": "GI50", "setting": "[20]", "value": 2.79, "unit": "µM"},
      {"measurement": "TGI", "setting": "[20]", "value": 24.9, "unit": "µM"},
      {"measurement": "GI50", "setting": "[21]", "value": 1.8, "unit": "µM"},
      {"measurement": "TGI", "setting": "[21]", "value": 25.6, "unit": "µM"},
      {"measurement": "GI50", "setting": "[22]", "value": 1.21, "unit": "µM"},
      {"measurement": "TGI", "setting": "[22]", "value": 13.4, "unit": "µM"},
      {"measurement": "GI50", "setting": "[23]", "value": 2.07, "unit": "µM"},
      {"measurement": "TGI", "setting": "[23]", "value": 21.4, "unit": "µM"},
      {"measurement": "GI50", "setting": "[24]", "value": 1.45, "unit": "µM"},
      {"measurement": "TGI", "setting": "[24]", "value": 15.4, "unit": "µM"},
      {"measurement": "GI50", "setting": "[25]", "value": 1.47, "unit": "µM"},
      {"measurement": "TGI", "setting": "[25]", "value": 22.4, "unit": "µM"},
      {"measurement": "GI50", "setting": "[26]", "value": 0.593, "unit": "µM"},
      {"measurement": "TGI", "setting": "[26]", "value": 15.8, "unit": "µM"},
      {"measurement": "GI50", "setting": "[27]", "value": 3.4, "unit": "µM"},
      {"measurement": "TGI", "setting": "[27]", "value": 38.8, "unit": "µM"},
      {"measurement": "GI50", "setting": "[28]", "value": 1.25, "unit": "µM"},
      {"measurement": "TGI", "setting": "[28]", "value": 19.1, "unit": "µM"},
      {"measurement": "GI50", "setting": "[29]", "value": 1.48, "unit": "µM"},
      {"measurement": "TGI", "setting": "[29]", "value": 21.8, "unit": "µM"},
      {"measurement": "GI50", "setting": "[30]", "value": 1.04, "unit": "µM"},
      {"measurement": "TGI", "setting": "[30]", "value": 3.14, "unit": "µM"}
    ]}
  ]
}
